Columns and labels:
[1] = Plasma concentrations during escalating i.v. infusion in anesthetized rats; type: in vivo; conditions: male, Sprague Dawley, plasma, iv, anesthetized rat, BAF312 i.v.
Experimental: The cardiovascular effects of FTY720 and BAF312 were tested in anesthetized rats (180–200 g). In brief, male Sprague Dawley rats (Charles River) were anesthetized with Inactin (110 mg/kg i.p.) and a tracheotomy performed. The femoral artery and veins were catheterized for measurement of mean arterial pressure and heart rate, collection of blood samples at 20-min intervals (0.2 mL/sample), and for compound infusion/hydration as previously described, [24]; blood samples were also withdrawn in vehicle-treated control rats. FTY720, infused as a hydrochloride salt (0.1, 0.3, 1.0 mg/kg/20-min free base equivalent solubilized in a 100% PEG-400 vehicle), or BAF312 (0.5, 1.5, 5.0 mg/kg/20-min solubilized in a 100% PEG-400 vehicle) were administered via three escalating 20-min infusions (0.011 mL/min) followed by a 1-hr post-treatment period. A blood sample was withdrawn at 20, 40, 60, and 120-minutes for analysis of plasma concentrations of the parent compound, and in the case of FTY720, also the phosphorylated metabolite, (S)-FTY720-P. Statistical significance (p<0.05) was based on a t-test comparing treatment change from baseline (baseline was defined as the period from −30 to 0 minutes) vs. vehicle controls change from baseline at each timepoint without adjustment for multiple comparisons. In a separate group of anesthetized rats in which left ventricular (LV) contractility was also recorded with a Millar pressure transducer introduced into the left ventricle, BAF312 was infused in the same dosing regimen as the studies described above (0.5, 1.5, 5.0 mg/kg/20-min solubilized in a 100% PEG-400 vehicle) and effects on LV dP/dtmax were recorded.

[2] = Plasma concentrations in repeat-dosing study, satellite rats; type: in vivo, rat; conditions: for concentration at 4 h / concentration at 8 h / concentration at 24 h: male, Sprague Dawley, rat, plasma, po, mean±SEM; for Plasma concentration at Tmax (4 hrs) / Terminal plasma concentration at Tmax: satellite rats; for Plasma concentration at Tmax (4 hrs): day 1; for Terminal plasma concentration at Tmax: last day of study
Experimental: Mean arterial pressure was assessed in conscious, freely moving male Sprague Dawley rats (n = 6–8/group; Charles River) instrumented with telemetry transmitters (DSI-Ponemah) and housed in metabolism cages as previously described, [26]. Tested compounds were solubilized in a 0.5% Methylcellulose/0.015% Tween 80 vehicle that was also dosed alone (p.o./QD, 5 mL/kg) as a control in the study. FTY720 was administered p.o. at 0.3, 1.0, 3.0, 10.0 mg/kg p.o. as a single dose or p.o./QD at 0.5, 1.5, and 5.0 mg/kg in a chronic study. BAF312 was administered p.o/QD at 0.3, 3.0, and 30 mg/kg as a single dose and in a chronic study. Mean arterial pressure and heart rate are shown as 1-hr and/or 24-hr mean values±SEM as described in the results. Blood samples in satellite rats were withdrawn at various timepoints as described in the results for analysis of plasma concentrations of the parent compound and, in the case of FTY720, also the phosphorylated metabolite, (S)-FTY720-P. Statistical analysis for the single-dose acute studies was based on one-way ANOVA to compare the treatment groups vs. vehicle for each time period after dosing (0–24 hrs, 24–48 hrs, and 48–72 hrs); statistical significance (p<0.05) was detected by Dunnett’s post-hoc test to compare treatment with vehicle controls. The statistical analysis in the chronic studies were based on one-way ANOVA with repeated measures to compare the treatment arms; statistical significance (p<0.05) was detected by Dunnett’s post-hoc test to compare treatment with vehicle controls.

SMILES: CCc1cc(/C(C)=N/OCc2ccc(C3CCCCC3)c(C(F)(F)F)c2)ccc1CN1CC(C(=O)O)C1 [BAF312]
- concentration at 20 min ([1]; end of 0.5 mg/kg/20 min infusion): 1430 ± 707 nM
- concentration at 40 min ([1]; end of 1.5 mg/kg/20 min infusion): 3.23 ± 0.21 µM
- concentration at 60 min ([1]; end of 5.0 mg/kg/20 min infusion): 7.25 ± 0.517 µM
- concentration at 120 min ([1]; end of 60-min post-treatment period): 2820 ± 276 nM
- concentration at 4 h ([2]; 0.3 mg/kg/day, BAF312 0.3 mg/kg/d p.o., Terminal (last day), 4 hr post-dose): 81 ± 8 nM
- concentration at 8 h ([2]; 0.3 mg/kg/day, BAF312 0.3 mg/kg/d p.o., Terminal (last day), 8 hr post-dose): 54 ± 7 nM
- concentration at 24 h ([2]; 0.3 mg/kg/day, BAF312 0.3 mg/kg/d p.o., Terminal (last day), 24 hr post-dose): 13 ± 6 nM
- concentration at 4 h ([2]; 0.3 mg/kg/day, BAF312 0.3 mg/kg/d p.o., Day 1, 4 hr post-dose): 91 ± 7 nM
- concentration at 8 h ([2]; 0.3 mg/kg/day, BAF312 0.3 mg/kg/d p.o., Day 1, 8 hr post-dose): 65 ± 8 nM
- concentration at 24 h ([2]; 0.3 mg/kg/day, BAF312 0.3 mg/kg/d p.o., Day 1, 24 hr post-dose): 0 nM
- concentration at 4 h ([2]; 3 mg/kg/day, BAF312 3.0 mg/kg/d p.o., Terminal (last day), 4 hr post-dose): 735 ± 73 nM
- concentration at 8 h ([2]; 3 mg/kg/day, BAF312 3.0 mg/kg/d p.o., Terminal (last day), 8 hr post-dose): 480 ± 33 nM
- concentration at 24 h ([2]; 3 mg/kg/day, BAF312 3.0 mg/kg/d p.o., Terminal (last day), 24 hr post-dose): 98 ± 8 nM
- concentration at 4 h ([2]; 3 mg/kg/day, BAF312 3.0 mg/kg/d p.o., Day 1, 4 hr post-dose): 685 ± 113 nM
- concentration at 8 h ([2]; 3 mg/kg/day, BAF312 3.0 mg/kg/d p.o., Day 1, 8 hr post-dose): 584 ± 81 nM
- concentration at 24 h ([2]; 3 mg/kg/day, BAF312 3.0 mg/kg/d p.o., Day 1, 24 hr post-dose): 103 ± 9 nM
- concentration at 4 h ([2]; 30 mg/kg/day, BAF312 30.0 mg/kg/d p.o., Terminal (last day), 4 hr post-dose): 8330 ± 650 nM
- concentration at 8 h ([2]; 30 mg/kg/day, BAF312 30.0 mg/kg/d p.o., Terminal (last day), 8 hr post-dose): 5280 ± 443 nM
- concentration at 24 h ([2]; 30 mg/kg/day, BAF312 30.0 mg/kg/d p.o., Terminal (last day), 24 hr post-dose): 942 ± 117 nM
- concentration at 4 h ([2]; 30 mg/kg/day, BAF312 30.0 mg/kg/d p.o., Day 1, 4 hr post-dose): 6400 ± 390 nM
- concentration at 8 h ([2]; 30 mg/kg/day, BAF312 30.0 mg/kg/d p.o., Day 1, 8 hr post-dose): 4820 ± 617 nM
- concentration at 24 h ([2]; 30 mg/kg/day, BAF312 30.0 mg/kg/d p.o., Day 1, 24 hr post-dose): 721 ± 211 nM
- Plasma concentration at Tmax (4 hrs) ([2]; BAF312 0.3 mg/kg/d p.o.): 91 ± 7 nM
- Terminal plasma concentration at Tmax ([2]; BAF312 0.3 mg/kg/d p.o.): 81 ± 8 nM
- Plasma concentration at Tmax (4 hrs) ([2]; BAF312 3.0 mg/kg/d p.o.): 685 ± 113 nM
- Terminal plasma concentration at Tmax ([2]; BAF312 3.0 mg/kg/d p.o.): 735 ± 73 nM
- Plasma concentration at Tmax (4 hrs) ([2]; BAF312 30 mg/kg/d p.o.): 6395 ± 390 nM
- Terminal plasma concentration at Tmax ([2]; BAF312 30 mg/kg/d p.o.): 8328 ± 650 nM

From PMC3532212 (PLoS ONE, 2012)
